# Tested on: HFD-fed wild-type mice
# Assay: Sphingolipid levels in tissues and serum of HFD-fed mice by mass spectrometry
# Assay type: in vivo, mouse
# Conditions: for Cer 14:0 / Cer 16:0 / Cer 18:0 / Cer 18:1 / Cer 20:0 / Cer 22:0 / Cer 24:0 / Cer 24:1 / Cer 26:0 / Cer 26:1 / DeoxySphinganie / Deoxysphingosine / Hexosyl 14:0 / Hexosyl 16:0 / Hexosyl 18:0 / Hexosyl 20:0 / Hexosyl 22:0 / Hexosyl 24:0 / Hexosyl 24:1 / Lactosyl 16:0 / Lactosyl 18:0 / Lactosyl 22:0 / Lactosyl 24:1 / Lactosyl C24:0 / Sphingaine1P / Sphinganine / Sphingosine / Sphingosine1P / dCer 16:0 / dCer 18:0 / dCer 20:0 / dCer 22:0 / dCer 24:0 / dCer 24:1: 5 mg/kg twice a day 5 days, average ± SD
# Protocol: Six-week-old wild-type male mice were fed HFD for 4 weeks or 7 months In total, 5 mg/Kg of PBS, Adiporon, AdipoRonPEG5, AdipoRonPEG6HTL were injected twice a day for 5 days. After 5 days of treatment, systemic test is performed, and serum (Before and after treatment), subcutaneous, epididymal, liver, heart samples were harvested for qPCR and sphingolipid analysis.
# Flash-frozen tissue samples (~40 mg) in a borosilicate glass tube were quenched with 2.0 ml of organic extraction solvent (isopropanol: ethyl acetate, 15:85; v:v) and homogenized with a mechanical tissue disruptor. Immediately afterward, 20 μl of organic internal standard solution was added (Ceramide/Sphingoid Internal Standard Mixture II diluted 1:10 in ethanol). The mixture was vortexed for 20 s and sonicated in ultrasonic bath for 40 min at 40°C. The organic extract was allowed to reach room temperature, and 1.5 ml of HPLC water was added and a two-phase liquid-liquid extraction was performed. The upper phase was transferred to a new clean tube, and the lower aqueous phase containing the protein pellet was re-extracted with additional 2.0 ml of organic extraction solvent. The organic phases were combined and dried under nitrogen stream at 40°C. Dried extracts were stored at –80°C until analysis. For analysis of ceramides and sphingoid base species, the dried residues were reconstituted in 200 μl of methanol. Sphingomyelins required a sample dilution of 1:50 in methanol prior to analysis. Serum sphingolipids were extracted using a similar methodology requiring 25 μl of serum.
# Liver, subcutaneous adipose tissue, pancreas, pancreatic islets were initially homogenized in 500 μl of cold PBS using an ultrasonic probe disruptor and keeping the sample on ice during sonication. In total, 50 μl of aqueous homogenate was aliquoted for protein determination. In total, 400 μl of the lysate was immediately quenched in 2.0 ml of organic extraction solvent.
# In total, 5 μl of reconstituted samples was injected into an LC/MS/MS system for the analysis of ceramides and sphingoid bases, and 1 μl injection was required for the analysis of sphingomyelins. The system consisted of a Shimadzu LCMS-8050 triple-quadrupole mass spectrometer with the dual ion source operating in electrospray positive ionization mode. The mass spectrometer is coupled to a Shimadzu Nexera X2 UHPLC system equipped with three solvent delivery modules LC-30AD, three degassing units DGU-20A5R, an autosampler SIL-30ACMP, and a column oven CTO-20AC operating at 40°C (Shimadzu Scientific Instruments, Columbia, MD). Six sphingoid bases (d18:1 sphingosine, d18:1 sphingosine-1-phosphate, d18:1 deoxysphingosine, d18:0 sphinganine, d18:0 sphinganine-1-phosphate, d18:0 deoxysphinganine) and […] ceramide species and their metabolites (C16:0, C16:0 dihydroceramide, C16:0 glucosylceramide, C16:0 lactosylceramide, C16:0 sphingomyelin, C18:0, C18:0 dihydroceramide, C18:0 glucosylceramide, C18:0 sphingomyelin, C18:1, C20:0, C22:0, C22:0 glucosylceramide, C24:0, C24:0 dihydroceramide, C24:0 lactosylceramide, C24:0 sphingomyelin, C24:1, C24:1 dihydroceramide, C24:1 glucosylceramide, C24:1 sphingomyelin). Quantitative analysis of sphingolipids was achieved using selective reaction monitoring scan mode. Lipid separation was achieved by reverse phase LC on a 2.1 (i.d.) × 150 mm Ascentis Express C8, 2.7 micron (Supelco, Bellefonte, PA) column under gradient elution, using three different mobile phases: eluent A consisting of methanol/water/formic acid, 600/400/0.8, v/v/v with 5 mM ammonium formate, eluent B consisting of methanol/formic acid, 1,000/0.8, v/v with 5 mM ammonium formate, and eluent C consisting of CH3OH/CH2Cl2 350/650. The concentration of each metabolite was determined according to calibration curves using the peak-area ratio of analyte versus corresponding internal standard. Calibration curves were generated using serial dilutions of each target analyte.
compound,measurement,setting,value
O=C(COc1ccc(C(=O)c2ccccc2)cc1)NC1CCN(Cc2ccccc2)CC1 [AdipoRon],scWAT ceramide levels,5 mg/kg,neither AdipoRon nor AdipoRonPEG5 had a noticeable impact
same,hepatic dihydroceramides,IP 5 mg/kg,nor did it lower dihydroceramide
same,sphingoid bases including S1P in the liver,IP 5 mg/kg,neither increased sphingoid bases
same,Cer 14:0,liver,11180.9 ± 7129.23 pg/mg
same,Cer 16:0,liver,15452.5 ± 14214.83 pg/mg
same,Cer 18:0,liver,47128.6 ± 39264.7 pg/mg
same,Cer 18:1,liver,0 pg/mg
same,Cer 20:0,liver,2021924.3 ± 1132557.52 pg/mg
same,Cer 22:0,liver,21221267.5 ± 1938950.14 pg/mg
same,Cer 24:0,liver,8844684.8 ± 1440139.38 pg/mg
same,Cer 24:1,liver,7621686.9 ± 1072827.16 pg/mg
same,Cer 26:0,liver,108319.5 ± 12837.73 pg/mg
same,Cer 26:1,liver,87632.7 ± 14143.63 pg/mg
same,DeoxySphinganie,liver,16855.9 ± 5197.82 pg/mg
same,Deoxysphingosine,liver,554.4 ± 112.17 pg/mg
same,Hexosyl 14:0,liver,6839.3 ± 2807.56 pg/mg
same,Hexosyl 16:0,liver,2057918.6 ± 682419.73 pg/mg
same,Hexosyl 18:0,liver,13702.3 ± 11183.27 pg/mg
same,Hexosyl 20:0,liver,139906.7 ± 74494.86 pg/mg
same,Hexosyl 22:0,liver,21992555.3 ± 7887275.74 pg/mg
same,Hexosyl 24:0,liver,9407290.2 ± 3691767.57 pg/mg
same,Hexosyl 24:1,liver,7250991.4 ± 2638110.11 pg/mg
same,Lactosyl 16:0,liver,401293.8 ± 92547.01 pg/mg
same,Lactosyl 18:0,liver,0.0 ± 0.0 pg/mg
same,Lactosyl 22:0,liver,604972.0 ± 219908.19 pg/mg
same,Lactosyl 24:1,liver,424590.5 ± 191122.31 pg/mg
same,Lactosyl C24:0,liver,317251.2 ± 183613.54 pg/mg
same,Sphingaine1P,liver,55129.9 ± 14495.18 pg/mg
same,Sphinganine,liver,299552.9 ± 52030.89 pg/mg
same,Sphingosine,liver,1192462 ± 75216.97 pg/mg
same,Sphingosine1P,liver,178631.8 ± 67607.36 pg/mg
same,dCer 16:0,liver,18233.3 ± 21176.21 pg/mg
same,dCer 18:0,liver,45901.3 ± 42922.13 pg/mg
same,dCer 20:0,liver,37867.7 ± 27772.5 pg/mg
same,dCer 22:0,liver,385034 ± 150652 pg/mg
same,dCer 24:0,liver,364847.1 ± 73663.91 pg/mg
same,dCer 24:1,liver,130075.8 ± 53105.06 pg/mg
same,Cer 14:0,pancreas,26.4 ± 4.51 pg/mg
same,Cer 16:0,pancreas,26.1 ± 10.18 pg/mg
same,Cer 18:0,pancreas,28.9 ± 6.11 pg/mg
same,Cer 18:1,pancreas,0 pg/mg
same,Cer 20:0,pancreas,1529.7 ± 140.3 pg/mg
same,Cer 22:0,pancreas,7541.1 ± 1118.82 pg/mg
same,Cer 24:0,pancreas,21064.5 ± 2932.0 pg/mg
same,Cer 24:1,pancreas,10791.6 ± 1783.65 pg/mg
same,Cer 26:0,pancreas,155.6 ± 36.08 pg/mg
same,Cer 26:1,pancreas,81.6 ± 16.04 pg/mg
same,DeoxySphinganie,pancreas,2.1 ± 0.29 pg/mg
same,Deoxysphingosine,pancreas,0.0 ± 0.0 pg/mg
same,Hexosyl 14:0,pancreas,3.8 ± 0.85 pg/mg
same,Hexosyl 16:0,pancreas,2561.5 ± 453.4 pg/mg
same,Hexosyl 18:0,pancreas,7.3 ± 3.14 pg/mg
same,Hexosyl 20:0,pancreas,112.7 ± 34.01 pg/mg
same,Hexosyl 22:0,pancreas,6774.3 ± 637.6 pg/mg
same,Hexosyl 24:0,pancreas,3358.5 ± 311.97 pg/mg
same,Hexosyl 24:1,pancreas,1427.8 ± 124.45 pg/mg
same,Lactosyl 16:0,pancreas,975.8 ± 208.21 pg/mg
same,Lactosyl 18:0,pancreas,52.8 ± 9.76 pg/mg
same,Lactosyl 22:0,pancreas,223.0 ± 50.43 pg/mg
same,Lactosyl 24:1,pancreas,310.1 ± 93.68 pg/mg
same,Lactosyl C24:0,pancreas,2057.1 ± 422.83 pg/mg
same,Sphingaine1P,pancreas,17.5 ± 11.69 pg/mg
same,Sphinganine,pancreas,25.9 ± 3.48 pg/mg
same,Sphingosine,pancreas,217.3 ± 27.75 pg/mg
same,Sphingosine1P,pancreas,90.3 ± 22.26 pg/mg
same,dCer 16:0,pancreas,3.8 ± 1.52 pg/mg
same,dCer 18:0,pancreas,0.0 ± 0.0 pg/mg
same,dCer 20:0,pancreas,2.0 ± 0.18 pg/mg
same,dCer 22:0,pancreas,24.6 ± 9.85 pg/mg
same,dCer 24:0,pancreas,206.7 ± 49.68 pg/mg
same,dCer 24:1,pancreas,24.0 ± 10.28 pg/mg
same,Cer 14:0,scWAT,41670.5 ± 9888.98 pg/mg
same,Cer 16:0,scWAT,200569.4 ± 60832.18 pg/mg
same,Cer 18:0,scWAT,90968.7 ± 40221.97 pg/mg
same,Cer 18:1,scWAT,24648 ± 8680 pg/mg
same,Cer 20:0,scWAT,189778.3 ± 38166.38 pg/mg
same,Cer 22:0,scWAT,835762.6 ± 112294.65 pg/mg
same,Cer 24:0,scWAT,2316061.3 ± 1012651.99 pg/mg
same,Cer 24:1,scWAT,2616280.7 ± 714833.34 pg/mg
same,Cer 26:0,scWAT,25284.4 ± 8047.31 pg/mg
same,Cer 26:1,scWAT,27852.3 ± 8212.8 pg/mg
same,DeoxySphinganie,scWAT,1039.3 ± 1085.07 pg/mg
same,Deoxysphingosine,scWAT,0.0 ± 0.0 pg/mg
same,Hexosyl 14:0,scWAT,3863.9 ± 2313.65 pg/mg
same,Hexosyl 16:0,scWAT,1558779.8 ± 419292.53 pg/mg
same,Hexosyl 18:0,scWAT,879349.9 ± 318302.5 pg/mg

# Reference: publication PMC8327158, “PEGylated AdipoRon derivatives improve glucose and lipid metabolism under insulinopenic and high-fat diet conditions” (Journal of Lipid Research, 2021)
